According to publication PMC6325219, “Preclinical Characterization of NVR 3-778, a First-in-Class Capsid Assembly Modulator against Hepatitis B Virus” (Antimicrobial Agents and Chemotherapy, 2018):

Tests used:
[1] = tested on: HBV core protein variant T109I; assay: microbe, parasite or virus in culture
Description: (§1) Plasmids containing HBV DNA with rtN236T, rtA181V, rtA181V/N236T, and rtL180M/M204V/N236T were generated using the GT B WT or rtL180M/M204V DNA-containing plasmids and site-directed mutagenesis (Agilent Technologies). A panel of nine different HBV core variants (cW102G, cW102R, cI105V, cI105L, cI105T, cT109S, cT109M, cT109I, and cY118F) was generated, also using the GT B WT DNA-containing plasmid and site-directed mutagenesis. The full-length genome from all plasmids was sequenced to confirm that only the intended nucleotide change(s) was present. Finally, HBV sequences from genotypes A (GenBank accession number AF305422), C (GenBank accession number AB033550), D (GenBank accession number V01460), E (GenBank accession number AB274971), F (GenBank accession number AB036912), G (GenBank accession number AF160501), and H (GenBank accession number AB375159) were gene synthesized as 1.1 times the genome length together with part of the CMV promoter at the 5′ end. The gene-synthesized piece was validated by sequencing and subcloned into the pCMV-HBV plasmid using the restriction sites SalI and NdeI (Genewiz, USA).
(§2) HepG2 cells were seeded in 96-well plates at a density of 20,000 cells/well and allowed to attach overnight at 37°C in 5% CO2. Cells were cotransfected with the HBV plasmids (100 ng/well) and a Gaussia expression plasmid (10 ng/well) (Thermo Scientific) using the Lipofectamine LTX Plus transfection reagent (Life Technologies). Transfection mixtures were removed after overnight incubation, and cells were treated with serially diluted NVR 3-778 at a final dimethyl sulfoxide (DMSO) concentration of 0.5%. After 3 days of incubation with the compound, the supernatants were collected and secreted Gaussia luciferase was measured using a Gaussia Flash luciferase assay kit (Thermo Scientific). Cells were lysed with 0.33% NP-40 (Thermo Scientific), and the cytoplasmic fractions were treated with 2 units of Turbo DNase (Invitrogen) and 10 units of S7 nuclease (Roche) in CutSmart buffer (New England Biolabs) containing 25 µM CaCl2 (G-Biosciences) at 37°C for 60 min, followed by inactivation of the enzymes at 75°C for 15 min. Samples were diluted into lysis buffer (Affymetrix) containing 2.5 µg proteinase K (Affymetrix) at 50°C for 40 min. Intracellular encapsidated HBV DNA was denatured for 30 min at 25°C in 0.2 M NaOH (Sigma) and incubated with HBV DNA probes designed to hybridize to the minus-strand HBV DNA (Affymetrix). The denatured DNA was subsequently detected using a QuantiGene assay kit, according to the branched DNA (bDNA) assay recommended by the manufacturer (Affymetrix).
(§3) To determine percent inhibition, the mean background signal from wells containing only culture medium was subtracted from the signal for all other samples, and percent inhibition at each compound concentration was calculated by normalization to the signals for HepG2.2.15 cells treated with 0.5% DMSO. […] Both CalcuSyn and MacSynergy II (Ann Arbor, MI) software were used to evaluate the effect of compound combinations ([27]). After data analysis at the 95% confidence level, values of synergy or antagonism of <25 µM^2% were defined as insignificant, those between 25 and 50 µM^2% were defined as minor, those between 50 and 100 µM^2% were defined as moderate, and those of >100 µM^2% were defined as strong.

[2] = tested on: HBV core protein variant Y118F; assay: microbe, parasite or virus in culture
Description: as §1, §2, §3

[3] = tested on: HBV core protein variant I105T; assay: microbe, parasite or virus in culture
Description: as §1, §2, §3

[4] = target: T1, recombinant HBV core protein (Hepatitis B virus genotype D subtype ayw, UniProt P03146); assay: Capsid assembly of recombinant core protein, electron microscopy; type: biochemical; settings: 1.2:1 compound-to-core monomer ratio, 0.15 M NaCl, room temperature overnight
T1 construct: Electron microscopy with HBV capsid formed from recombinant HBV core protein was performed as described previously ([5])
Procedure: FIG 1 NVR 3-778 targets HBV core protein and inhibits viral replication. (A) Chemical structure of NVR 3-778. (B) Purified recombinant HBV core protein in the absence or presence of NVR 3-778. NVR 3-778 was incubated with recombinant core protein (1.2:1 compound-to-core monomer ratio) in buffer containing 0.15 M NaCl at room temperature overnight prior to staining and imaging by electron microscopy. (C, D) The effect of NVR 3-778 on intracellular rcDNA, extracellular HBV DNA, or cell viability (C) or on intracellular encapsidated pgRNA- or extracellular HBV RNA-containing particles (D) was determined upon treating HepG2.2.15 cells with increasing concentrations of NVR 3-778. (E, F) The effect of TFV on intracellular rcDNA, extracellular HBV DNA, or cell viability (E) or on intracellular encapsidated pgRNA- or extracellular HBV RNA-containing particles (F) was determined upon treating HepG2.2.15 cells with increasing concentrations of TFV. Secreted HBV DNA and secreted HBV RNA levels were determined from the supernatant of HepG2.2.15 cells. Intracellular encapsidated rcDNA and pgRNA levels were determined upon NP-40 lysis of cells and by using S7 nuclease to remove nonencapsidated nucleic acids. Cell viability was determined by measuring ATP levels using the CellTiter-Glo assay. […]

plasma proteins = assay: Plasma protein binding by equilibrium dialysis, rat; type: in vitro ADME; settings: 2 µM
Description: The binding of NVR 3-778 to the plasma proteins of mouse, rat, dog, monkey, and human was investigated by equilibrium dialysis.

[5] = Hepatocyte stability, mouse hepatocytes; type: in vitro ADME; settings: 120 min incubation
Procedure: Following in vitro incubation for 120 min with human, mouse, or dog hepatocytes, >85% of the NVR 3-778 remained intact. […] The fewest number of metabolites was found following incubation with human hepatocytes, where 92% of the NVR 3-778 remained after a 120-min incubation.

HBV GT H = assay: Transient-transfection antiviral study in HepG2 cells, GT H; type: cell-based; settings: Hepatitis B virus, HepG2, 72 h, read-out: EC50 (mean), HBV GT H
HBV GT C = assay: Transient-transfection antiviral study in HepG2 cells, GT C; type: cell-based; settings: Hepatitis B virus, HepG2, 72 h, read-out: EC50 (mean), HBV GT C
[6] = ratio of mean EC50 for core variant over wild-type HBV

O=C(Nc1cc(F)c(F)c(F)c1)c1ccc(F)c(S(=O)(=O)N2CCC(O)CC2)c1 [NVR 3-778]
EC50 ([1]; Hepatitis B virus, HepG2, read-out: EC50, core variant T109I): 150 ± 61 nM | EC50 FC, T109I [1, 6]: 0.65 fold | EC50 ([2]; Hepatitis B virus, HepG2, read-out: EC50, core variant Y118F): 1700 ± 700 nM | EC50 FC, Y118F [2, 6]: 7.4 fold | EC50 ([3]; Hepatitis B virus, HepG2, read-out: EC50, core variant I105T): 1500 ± 300 nM | EC50 FC, I105T [3, 6]: 6.5 fold | Effect on assembly of purified recombinant core protein [4]: effectively induced the formation of capsid-like particles | Mean percent binding to plasma proteins (plasma proteins): approximately 91% | NVR 3-778 remaining intact [5]: > 85% | EC50 (HBV GT H): 580 nM | EC50 (HBV GT C): 340 nM
